Data published in patent US11230538B2, “Herbicides” (SYNGENTA PARTICIPATIONS AG, priority 2016, dated 2022).

Legend:
Format in all cases: in vivo
[1] = tested on: Amaranthus retroflexus (AMARE); assay: B1 Pre-emergence herbicidal activity; set-up: key: 5=total damage to plant; 0=no damage to plant; details: pre-emergence application, Rate 1000 g/ha, evaluated after 13 days, Test 1b
Outline: (§1)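 Damage was rated 13 days after treatment, from 0 for none to 5 for total. The spray, in acetone/water 50:50 with 0.5% Tween 20, was applied pre-emergence, one day after seeds were sown in soil. Plants grew under glasshouse control at 24/16 °C, 14 h light, 65% humidity.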

Zea Mays (ZEAMX) [2] = assay: B1 Pre-emergence herbicidal activity; set-up: key: 5=total damage to plant; 0=no damage to plant; details: pre-emergence application, Rate 1000 g/ha, evaluated after 13 days, Test 1b
Outline: as §1

[3] = tested on: Echinochloa crus-galli (ECHCG); assay: B1 Pre-emergence herbicidal activity; set-up: key to Pre-emergence herbicidal activity, ECHCG (damage score 0-5): 5=total damage to plant; 0=no damage to plant; details: pre-emergence application, evaluated after 13 days; for ECHCG damage score (0-5): Rate 1000 g/ha, Test 1b
Outline: as §1

Lolium perenne (LOLPE) [4] = assay: B1 Pre-emergence herbicidal activity; details: pre-emergence application, evaluated after 13 days; for LOLPE damage score (0-5): Rate 1000 g/ha, Test 1b
Outline: as §1

[5] = tested on: Abutilon theophrasti (ABUTH); assay: B1 Pre-emergence herbicidal activity; details: pre-emergence application, Rate 1000 g/ha, evaluated after 13 days, Test 1b
Description: Seeds of a variety of test species were sown in standard soil in pots: Triticum aestivium (TRZAW), Avena fatua (AVEFA), Alopecurus myosuroides (ALOMY), Echinochloa crus-galli (ECHCG), Lolium perenne (LOLPE), Zea Mays (ZEAMX), Abutilon theophrasti (ABUTH), Amaranthus retroflexus (AMARE) and Setaria fabenr (SETFA). After cultivation for one day (pre-emergence) under controlled conditions in a glasshouse (at 24/16° C., day/night; 14 hours light; 65% humidity), the plants were sprayed with an aqueous spray solution derived from the formulation of the technical active ingredient in acetone I water (50:50) solution containing 0.5% Tween 20 (polyoxyethelyene sorbitan monolaurate, CAS RN 9005-64-5). The test plants were then grown in a glasshouse under controlled conditions (at 24/16° C., day/night; 14 hours light; 65% humidity) and watered twice daily. After 13 days, the test was evaluated (5=total damage to plant; 0=no damage to plant).

Setaria fabenr (SETFA) = assay: B1 Pre-emergence herbicidal activity; set-up: key to Pre-emergence herbicidal activity, SETFA (damage score 0-5): 5=total damage to plant; 0=no damage to plant; details: pre-emergence application, evaluated after 13 days; for SETFA damage score (0-5): Rate 1000 g/ha, Test 1b
Outline: as §1

[6] = tested on: Abutilon theophrasti (ABUTH); assay: B2 Post-emergence herbicidal activity; details: post-emergence application, Rate 1000 g/ha, evaluated after 13 days, Test 2b
Outline: (§2)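 Injury was rated 13 days after treatment from 0 (no damage) to 5 (total damage). The spray, applied 8 days after sowing, was an aqueous solution of the active ingredient from an acetone/water (50:50) formulation with 0.5% Tween 20. Plants were kept at 24/16° C, 14 h light, 65% humidity.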

[7] = tested on: Amaranthus retroflexus (AMARE); assay: B2 Post-emergence herbicidal activity; details: post-emergence application, Rate 1000 g/ha, evaluated after 13 days, Test 2b
Outline: as §2

[8] = tested on: Echinochloa crus-galli (ECHCG); assay: B2 Post-emergence herbicidal activity; set-up: key to Post-emergence herbicidal activity, ECHCG (damage score 0-5): 5=total damage to plant; 0=no damage to plant; details: post-emergence application, evaluated after 13 days; for ECHCG damage score (0-5): Rate 1000 g/ha, Test 2b
Outline: as §2

Lolium perenne (LOLPE) [9] = assay: B2 Post-emergence herbicidal activity; details: post-emergence application, evaluated after 13 days; for LOLPE damage score (0-5): Rate 1000 g/ha, Test 2b
Outline: as §2

Setaria fabenri (SETFA) = assay: B2 Post-emergence herbicidal activity; set-up: key: 5=total damage to plant; 0=no damage to plant; details: post-emergence application, evaluated after 13 days; for SETFA damage score (0-5): Rate 1000 g/ha, Test 2b
Outline: as §2

Zea Mays (ZEAMX) [10] = assay: B2 Post-emergence herbicidal activity; set-up: key: 5=total damage to plant; 0=no damage to plant; details: post-emergence application, Rate 1000 g/ha, evaluated after 13 days, Test 2b
Outline: as §2

[11] = tested on: Alopecurus myosuroides (ALOMY); assay: B1 Pre-emergence herbicidal activity; set-up: key: 5=total damage to plant; 0=no damage to plant; details: pre-emergence application, evaluated after 13 days
Outline: as §1

Avena fatua (AVEFA) [12] = assay: B1 Pre-emergence herbicidal activity; set-up: key: 5=total damage to plant; 0=no damage to plant; details: pre-emergence application, evaluated after 13 days
Outline: as §1

[13] = tested on: Triticum aestivium (TRZAW); assay: B1 Pre-emergence herbicidal activity; set-up: key: 5=total damage to plant; 0=no damage to plant; details: pre-emergence application, evaluated after 13 days
Outline: as §1

Avena fatua (AVEFA) [14] = assay: B2 Post-emergence herbicidal activity; details: post-emergence application, evaluated after 13 days
Outline: as §2

[15] = tested on: Alopecurus myosuroides (ALOMY); assay: B2 Post-emergence herbicidal activity; set-up: key: 5=total damage to plant; 0=no damage to plant; details: post-emergence application, evaluated after 13 days
Outline: as §2

[16] = tested on: Triticum aestivium (TRZAW); assay: B2 Post-emergence herbicidal activity; set-up: key: 5=total damage to plant; 0=no damage to plant; details: post-emergence application, evaluated after 13 days
Outline: as §2

Structure (SMILES) | AMARE damage score (0-5) [1] | ZEAMX damage score (0-5) (Zea Mays (ZEAMX) [2]) | ECHCG damage score (0-5) [3] | LOLPE damage score (0-5) (Lolium perenne (LOLPE) [4]) | ABUTH damage score (0-5) [5] | SETFA damage score (0-5) (Setaria fabenr (SETFA)) | ABUTH damage score (0-5) [6] | AMARE damage score (0-5) [7] | ECHCG damage score (0-5) [8] | LOLPE damage score (0-5) (Lolium perenne (LOLPE) [9]) | SETFA damage score (0-5) (Setaria fabenri (SETFA)) | ZEAMX damage score (0-5) (Zea Mays (ZEAMX) [10]) | Pre-emergence herbicidal activity, ALOMY (damage score 0-5) ([11]; rate 1000 g/ha) | Pre-emergence herbicidal activity, AVEFA (damage score 0-5) (Avena fatua (AVEFA) [12]; rate 1000 g/ha) | Pre-emergence herbicidal activity, TRAZW (damage score 0-5) ([13]; rate 1000 g/ha) | Pre-emergence herbicidal activity, ECHCG (damage score 0-5) ([3]; rate 1000 g/ha) | Pre-emergence herbicidal activity, LOLPE (damage score 0-5) (Lolium perenne (LOLPE) [4]; rate 1000 g/ha) | Pre-emergence herbicidal activity, SETFA (damage score 0-5) (Setaria fabenr (SETFA); rate 1000 g/ha) | Post-emergence herbicidal activity, AVEFA (damage score 0-5) (Avena fatua (AVEFA) [14]; rate 1000 g/ha) | Post-emergence herbicidal activity, ECHCG (damage score 0-5) ([8]; rate 1000 g/ha) | other results
CC(=O)Nc1ccc(-c2cncc(F)c2)nc1C(F)(F)F [Compound C9, N-[6-(5-fluoro-3-pyridyl)-2-(trifluoromethyl)-3-pyridyl]acetamide] | 2 | 5 | 3 | 2 | 1 | 4 | 2 | 2 | 4 | 3 | 5 | 5 | – | – | – | – | – | – | – | – | –
CC(C)C(=O)Nc1ccc(-c2cncc(F)c2)nc1C(F)(F)F [Compound C10, N-[6-(5-fluoro-3-pyridyl)-2-(trifluoromethyl)-3-pyridyl]-2-methyl-propanamide] | 0 | 5 | 4 | 2 | 1 | 4 | 1 | 1 | 4 | 3 | 4 | 5 | – | – | – | – | – | – | – | – | –
COC(=O)CCC(=O)N(C(=O)CCC(=O)OC)c1ccc(-c2cncc(F)c2)nc1C(F)(F)F [Compound C119] | – | – | – | – | – | – | – | – | – | – | – | – | 0 | 2 | 0 | 5 | 1 | 5 | 4 | 5 | Post-emergence herbicidal activity, LOLPE (damage score 0-5) (Lolium perenne (LOLPE) [9]; rate 1000 g/ha): 3; Post-emergence herbicidal activity, ALOMY (damage score 0-5) ([15]; rate 1000 g/ha): 1; Post-emergence herbicidal activity, SETFA (damage score 0-5) (Setaria fabenri (SETFA); rate 1000 g/ha): 5; Post-emergence herbicidal activity, TRAZW (damage score 0-5) ([16]; rate 1000 g/ha): 3
O=C(Nc1ccc(-c2cncc(F)c2)nc1C(F)(F)F)c1cncnc1 [Compound C120, N-[6-(5-fluoro-3-pyridyl)-2-(trifluoromethyl)-3-pyridyl]pyrimidine-5-carboxamide] | – | – | – | – | – | – | – | – | – | – | – | – | 0 | 3 | 0 | 4 | 1 | 5 | 3 | 5 | Post-emergence herbicidal activity, LOLPE (damage score 0-5) (Lolium perenne (LOLPE) [9]; rate 1000 g/ha): 3; Post-emergence herbicidal activity, ALOMY (damage score 0-5) ([15]; rate 1000 g/ha): 1; Post-emergence herbicidal activity, SETFA (damage score 0-5) (Setaria fabenri (SETFA); rate 1000 g/ha): 5; Post-emergence herbicidal activity, TRAZW (damage score 0-5) ([16]; rate 1000 g/ha): 2
CCC(=O)N(C(C)=O)c1ccc(-c2cncc(F)c2)nc1C(F)(F)F [Compound C121, N-acetyl-N-[6-(5-fluoro-3-pyridyl)-2-(trifluoromethyl)-3-pyridyl]propanamide] | – | – | – | – | – | – | – | – | – | – | – | – | – | – | – | – | – | – | – | – | Pre-emergence herbicidal activity, ALOMY (damage score 0-5) ([11]; rate 250 g/ha): 0; Pre-emergence herbicidal activity, AVEFA (damage score 0-5) (Avena fatua (AVEFA) [12]; rate 250 g/ha): 2; Pre-emergence herbicidal activity, TRAZW (damage score 0-5) ([13]; rate 250 g/ha): 0; Pre-emergence herbicidal activity, ECHCG (damage score 0-5) ([3]; rate 250 g/ha): 3; Pre-emergence herbicidal activity, LOLPE (damage score 0-5) (Lolium perenne (LOLPE) [4]; rate 250 g/ha): 1; Pre-emergence herbicidal activity, SETFA (damage score 0-5) (Setaria fabenr (SETFA); rate 250 g/ha): 5; Post-emergence herbicidal activity, AVEFA (damage score 0-5) (Avena fatua (AVEFA) [14]; rate 250 g/ha): 4; Post-emergence herbicidal activity, ECHCG (damage score 0-5) ([8]; rate 250 g/ha): 4; Post-emergence herbicidal activity, LOLPE (damage score 0-5) (Lolium perenne (LOLPE) [9]; rate 250 g/ha): 3; Post-emergence herbicidal activity, ALOMY (damage score 0-5) ([15]; rate 250 g/ha): 1; Post-emergence herbicidal activity, SETFA (damage score 0-5) (Setaria fabenri (SETFA); rate 250 g/ha): 5; Post-emergence herbicidal activity, TRAZW (damage score 0-5) ([16]; rate 250 g/ha): 1
